Source: ChEMBL document CHEMBL4184219, “Binding-Site Compatible Fragment Growing Applied to the Design of β2-Adrenergic Receptor Ligands” (J Med Chem, 2018)
pKi: −log10 of the molar value.

What was measured:
[1] = biological target: T1, Beta-2 adrenergic receptor (Homo sapiens, UniProt P07550); test: Displacement of [3H]-DHA from Nb80-fused beta2 adrenergic receptor (unknown origin) expressed in Sf9 cell membranes after 2 hrs by microbeta scintillation counting method
[2] = biological target: T1, Beta-2 adrenergic receptor; test: Displacement of [3H]-DHA from Nb69-fused beta2 adrenergic receptor (unknown origin) expressed in Sf9 cell membranes after 2 hrs by microbeta scintillation counting method
[3] = biological target: T1, Beta-2 adrenergic receptor; test: Ratio of Ki for Nb69-fused beta2 adrenergic receptor (unknown origin) to Ki for Nb80-fused beta2 adrenergic receptor (unknown origin)

T1 sequence (P07550 whole entry, looked up, the tested form may be a part): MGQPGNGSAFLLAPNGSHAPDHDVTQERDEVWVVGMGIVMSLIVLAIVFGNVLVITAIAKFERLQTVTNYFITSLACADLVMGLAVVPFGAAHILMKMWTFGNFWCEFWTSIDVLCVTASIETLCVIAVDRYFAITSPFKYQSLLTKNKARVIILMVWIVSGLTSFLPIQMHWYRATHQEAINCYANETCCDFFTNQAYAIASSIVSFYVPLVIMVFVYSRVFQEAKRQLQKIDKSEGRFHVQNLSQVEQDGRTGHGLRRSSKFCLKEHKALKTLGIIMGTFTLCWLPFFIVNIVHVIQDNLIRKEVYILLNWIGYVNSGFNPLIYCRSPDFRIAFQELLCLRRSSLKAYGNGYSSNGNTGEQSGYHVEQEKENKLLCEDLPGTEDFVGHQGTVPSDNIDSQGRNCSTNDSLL

Row | SMILES | pKi [1] | pKi [2] | Ratio Ki [3]
1 | NCc1ccc(-c2ncccn2)cc1 | 4.11 | < 3.00 | > 91
2 | CNCc1ccc(-c2nccs2)cc1 | 4.47 | 3.44 | 11
3 | COc1ccc2c(c1)c(CCN)cn2C | 4.69 | 4.44 | 1.8
4 | C[C@H](CC(F)(F)F)NCc1ccc(-c2nccs2)cc1 | 4.28 | 3.41 | 7.5
5 | CNCc1cc2ccccc2s1 | 4.36 | 3.43 | 8.6
6 | COc1ccc2c(c1)c(CCNCc1cc(OC(F)(F)F)ccc1F)cn2C | 4.09 | 4.08 | 1
7 | OCC(NCc1ccc(-c2nccs2)cc1)c1ccco1 (centres undefined) | 4.02 | < 3.00 | > 51
8 | CC(N)c1ccc(Cl)cc1 (centres undefined) | 4.47 | < 3.00 | > 61
9 | CC1(NCc2cc3ccccc3s2)COC1 | < 3.00 | < 3.00 | > 10

Stronger by pKi [1], values ahead:

Row | pKi [1] | pKi [2] | Ratio Ki [3] | SMILES
10 | 6.28 | 5.41 | 7.5 | COc1ccc2c(c1)c(CCNCCCc1ccc(Cl)cc1)cn2C
11 | 5.36 | 3.57 | 61 | Cc1ccccc1C(C)NCc1ccc(-c2ncccn2)cc1 (centres undefined)
12 | 5.10 | 4.13 | 9.4 | CC(NC1CC(c2ccc(F)cc2)C1)c1ccc(Cl)cc1 (centres undefined)
13 | 4.98 | 4.60 | 2.4 | COc1ccc2c(c1)c(CCNCCCc1cccc(C(F)(F)F)c1)cn2C
